According to paper PMC5677366, “Cyclic di-GMP differentially tunes a bacterial flagellar motor through a novel class of CheY-like regulators” (eLife, 2017):
Entries after “also recorded” stand apart in the source; their conditions may differ.

Columns and labels:
His-CleD (aa 19–269) = His-CleD (aa 19–269) (Caulobacter vibrioides, UniProt Q9A3V2); test: Microscale thermophoresis (MST); assay type: binding, Caulobacter crescentus
Procedure: (§1) MST experiments were carried out in a Monolith NT.115 device using standard treated capillaries (NanoTemper Technologies). Fluorescence changes resulting from thermophoresis were recorded using blue channel optics of the instrument (λex = 470 ± 15 nm, λem = 520 ± 10 nm) for the 30 s period of infrared laser heating at 40% of maximum laser power followed by a 5 s of cooling period. Measurements were performed in a buffer containing 50 mM Tris-HCl, pH 8.0, 100 mM NaCl, 5 mM MgCl2, 1 mM DTT and 0.1% Tween 20. 2'-O-(6-[Fluoresceinyl]aminohexylcarbamoyl)-cyclic diguanosine monophosphate (2’fluo-AHC-c-di-GMP, Biolog, Bremen, Germany) was added to probe the binding affinity of CleD domains. A 16-point 1:1 serial dilution series of proteins was titrated against a fixed concentration (60 nM) of 2’fluo-AHC-c-di-GMP. Data were evaluated in the program ProFit (Quansoft, Zurich, Switzerland) and fitted using the Hill equation.

His-CleD (aa 19–262) = His-CleD (aa 19–262) (Caulobacter vibrioides, UniProt Q9A3V2); test: MST; assay type: binding, Caulobacter crescentus; details: 60 nM ligand; variant lacking part of the CTR
Chain of His-CleD (aa 19–262) (Q9A3V2 entry or part of it): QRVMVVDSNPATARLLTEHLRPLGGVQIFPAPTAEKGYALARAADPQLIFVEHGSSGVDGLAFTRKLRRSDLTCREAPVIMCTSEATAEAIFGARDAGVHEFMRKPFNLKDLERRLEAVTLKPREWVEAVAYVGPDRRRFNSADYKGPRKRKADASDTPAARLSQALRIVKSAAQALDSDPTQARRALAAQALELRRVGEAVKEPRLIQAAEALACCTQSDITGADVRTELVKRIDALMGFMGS
Procedure: as §1

His-CleD-rec (aa 19–141) = His-CleD-rec (aa 19–141) (Caulobacter vibrioides, UniProt Q9A3V2); test: MST; assay type: binding, Caulobacter crescentus
Chain of His-CleD-rec (aa 19–141) (Q9A3V2 entry or part of it): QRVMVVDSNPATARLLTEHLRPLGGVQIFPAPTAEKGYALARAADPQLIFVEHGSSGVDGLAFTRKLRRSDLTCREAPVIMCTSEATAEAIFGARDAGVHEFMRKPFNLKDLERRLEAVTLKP
Procedure: as §1

[1] = target: His-CleD-rec-ARR (aa 19–174) (Caulobacter vibrioides, UniProt Q9A3V2); test: MST; assay type: binding, Caulobacter crescentus
Chain of His-CleD-rec-ARR (aa 19–174) (Q9A3V2 entry or part of it): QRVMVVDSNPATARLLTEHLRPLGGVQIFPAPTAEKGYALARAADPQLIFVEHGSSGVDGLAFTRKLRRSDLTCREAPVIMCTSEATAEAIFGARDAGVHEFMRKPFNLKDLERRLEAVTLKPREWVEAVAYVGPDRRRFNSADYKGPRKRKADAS
Procedure: as §1

His-SUMO R156A ARRCleD = test: MST; assay type: binding, Caulobacter crescentus
Procedure: as §1

His-SUMO R169A ARRCleD = His-SUMO R169A ARRCleD (Caulobacter vibrioides, UniProt Q9A3V2, R169A); test: MST; assay type: binding, Caulobacter crescentus
Chain of His-SUMO R169A ARRCleD (Q9A3V2 entry or part of it R169A): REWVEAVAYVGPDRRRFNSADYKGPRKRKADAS
Procedure: as §1

[2] = tested on: isolated ARR of CleA fused to His-SUMO; test: MST; assay type: binding, Caulobacter crescentus
Procedure: as §1

[3] = target: EcCheY-ARR with R156A mutant ARR (Caulobacter vibrioides, UniProt Q9A3V2, R156A); test: MST; assay type: binding, E. coli; details: read-out: apparent Kd
Chain of EcCheY-ARR with R156A mutant ARR (Q9A3V2 entry or part of it R156A): as the sequence (Q9A3V2 entry or part of it R169A) above
Chain of EcCheY-ARR with R156A mutant ARR (P0AE67 2-129, further chain): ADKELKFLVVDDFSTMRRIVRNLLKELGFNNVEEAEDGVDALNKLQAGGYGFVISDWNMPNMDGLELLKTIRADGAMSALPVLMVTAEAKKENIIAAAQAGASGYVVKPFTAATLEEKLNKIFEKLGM
Procedure: as §1

His-CheY = target: T1, His-CheY (Escherichia coli, UniProt P0AE67); test: MST; assay type: binding, E. coli
T1 construct: made in house; host or cells: E. coli BL21 (DE3)
T1 sequence (P0AE67 whole entry): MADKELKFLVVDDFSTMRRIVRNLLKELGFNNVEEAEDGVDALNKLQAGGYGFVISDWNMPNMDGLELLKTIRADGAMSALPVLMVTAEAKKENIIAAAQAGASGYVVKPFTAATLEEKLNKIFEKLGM
Procedure: as §1

[4] = target: EcCheY-ARR (wild-type ARR of CleD fused to E. coli CheY) (Caulobacter vibrioides, UniProt Q9A3V2); test: MST; assay type: binding; details: read-out: apparent Kd
Chain of EcCheY-ARR (wild-type ARR of CleD fused to E. coli CheY) (P0AE67 2-129): as the sequence (P0AE67 2-129, further chain) above
Chain of EcCheY-ARR (wild-type ARR of CleD fused to E. coli CheY) (Q9A3V2 entry or part of it): as the sequence (Q9A3V2 entry or part of it R169A) above
Procedure: as §1

His-SUMO = target: T2, His-SUMO (Saccharomyces cerevisiae, UniProt Q12306); test: MST; assay type: binding
T2 construct: made in house; host or cells: E. coli BL21 (DE3)
T2 sequence (Q12306 whole entry): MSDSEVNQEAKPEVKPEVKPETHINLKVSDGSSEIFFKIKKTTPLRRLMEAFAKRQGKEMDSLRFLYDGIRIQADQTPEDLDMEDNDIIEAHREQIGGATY
Procedure: as §1

StrepII-CleD [5] = target: T3, StrepII-CleD (Caulobacter vibrioides, UniProt Q9A3V2); test: UV cross-linking competition with non-labeled nucleotides; assay type: binding, Caulobacter crescentus; details: 1 µM StrepII-CleD, 0.25 µM 33P-labelled c-di-GMP
T3 sequence (Q9A3V2 entry or part of it): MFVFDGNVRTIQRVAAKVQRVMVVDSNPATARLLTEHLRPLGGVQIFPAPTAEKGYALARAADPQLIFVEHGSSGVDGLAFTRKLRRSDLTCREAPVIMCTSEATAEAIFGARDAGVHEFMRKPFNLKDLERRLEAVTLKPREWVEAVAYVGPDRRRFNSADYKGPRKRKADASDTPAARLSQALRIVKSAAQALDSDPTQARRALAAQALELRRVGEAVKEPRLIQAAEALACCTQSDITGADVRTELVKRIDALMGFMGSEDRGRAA
Procedure: Synthesis of radiolabeled c-di-GMP using YdeH and UV light-induced cross-linking experiments in conical 96-well plates (Greiner Bio-One) were performed as described recently ([Steiner et al., 2013]; [Christen et al., 2005]). […] As a control BSA was included. For competition experiments unlabeled nucleotides were incubated with the protein for 15 min prior the addition of c-[^33P] -di-GMP. The 96-well plates were then UV-irradiated at 254 nm for 20 min using a Bio-Link crosslinker (Vilber Lourmat, France). After addition of 5 μl loading dye and boiling for 5 min the samples were subjected to SDS-PAGE. Proteins were analyzed by Coomassie staining and autoradiography. Band intensities were quantified using the ImageJ64 software and the data were fitted using GraphPad Prism version 5.04 for Windows (GraphPad Software, San Diego California USA). The Kd was calculated by non-linear regression using the ‘One site – Total binding’ equation.

StrepII-CleD [6] = target: T3, StrepII-CleD; test: UV cross-linking with radiolabeled c-di-GMP; assay type: binding, Caulobacter crescentus
Procedure: Synthesis of radiolabeled c-di-GMP using YdeH and UV light-induced cross-linking experiments in conical 96-well plates (Greiner Bio-One) were performed as described recently ([Steiner et al., 2013]; [Christen et al., 2005]). Briefly, 2 μM protein was incubated for 10 min at room temperature with c-[^33P]-di-GMP in a total volume of 20 μl using PBS as buffer. As a control BSA was included. For competition experiments unlabeled nucleotides were incubated with the protein for 15 min prior the addition of c-[^33P] -di-GMP. The 96-well plates were then UV-irradiated at 254 nm for 20 min using a Bio-Link crosslinker (Vilber Lourmat, France). After addition of 5 μl loading dye and boiling for 5 min the samples were subjected to SDS-PAGE. Proteins were analyzed by Coomassie staining and autoradiography. Band intensities were quantified using the ImageJ64 software and the data were fitted using GraphPad Prism version 5.04 for Windows (GraphPad Software, San Diego California USA). The Kd was calculated by non-linear regression using the ‘One site – Total binding’ equation.

CleD-GFP [7] = target: T4, CleD-GFP (Caulobacter vibrioides, UniProt Q9A3V2); test: Isothermal titration calorimetry (ITC); assay type: binding, Caulobacter crescentus; details: ITC at 10°C
T4 sequence (Q9A3V2 entry or part of it): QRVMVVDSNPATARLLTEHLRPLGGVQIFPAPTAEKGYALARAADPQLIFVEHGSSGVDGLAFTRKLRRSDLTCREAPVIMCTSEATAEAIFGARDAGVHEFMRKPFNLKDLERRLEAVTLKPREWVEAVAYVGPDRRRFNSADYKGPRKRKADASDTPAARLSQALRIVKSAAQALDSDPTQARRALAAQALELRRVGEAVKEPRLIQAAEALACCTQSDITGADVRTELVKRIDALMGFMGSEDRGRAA
Procedure: (§2) ITC experiments were performed on a VP-ITC MicroCalorimeter (MicroCal, Northampton, MA, USA). Protein samples, c-di-GMP and buffer (50 mM Tris-HCl, pH 8.0, 100 mM NaCl, 5 mM MgCl2, 1 mM DTT) were degassed for 15 min prior to filling into sample cell and syringe. The sample cell contained 7.4 µM of His-CleD-GFP and the syringe contained 69.7 µM of cdG. The concentrations were determined in a spectrophotometer using a cuvette with 1 cm path length. All experiments were carried out at 10 °C with 30 injections (10 µl each) with a 250 s interval. Stir rate was 300 rpm. The data were evaluated using ITC Data Analysis in ORIGIN (MicroCal) provided by the manufacturer. The area under each peak was integrated and fitted using the built-in one-site model by non-linear least squares regression analysis.

His-CleD_R113A-GFP = His-CleD_R113A-GFP (Caulobacter vibrioides, UniProt Q9A3V2, R113A); test: ITC with R113A mutant; assay type: binding, Caulobacter crescentus
Procedure: as §2

[8] = tested on: R156A mutant variant of CleD-GFP; test: ITC with R156A mutant; assay type: binding, Caulobacter crescentus
Procedure: as §2

CleD-GFP [9] = target: T4, CleD-GFP; test: 1H-NMR Jump-return imino proton spectra; assay type: binding, Caulobacter crescentus; details: difference spectrum with and without c-di-GMP, four imino H1 resonances
Procedure: NMR spectra were recorded at 298 K on Bruker DRX 600, and DRX 900 NMR spectrometers equipped with TXI and TCI probe heads, respectively. The one dimensional NMR spectra were recorded with a Jump-return echo sequence ([Sklenár et al., 1987]) optimized for resonances at around 12 ppm. For the complex His-CleD-GFP·c-di-GMP and apo His-CleD-GFP 16384 scans were recorded. The NMR samples were prepared as follows. The sample of apo His-CleD-GFP (30 μM) was prepared in 100 mM NaCl, 20 mM sodium phosphate buffer at pH 6.5, 0.01% NaN3 (w/v), and 5% (v/v) D2O as sample volume of 250 μL. Complex CleD-GFP·c-di-GMP: the ligand was titrated to the apo His-CleD-GFP sample from a 20 mM stock solution in twofold excess.

CleD = test: 1H-15N HSQC NMR of 15N-CleD with FliM peptides; assay type: binding, Caulobacter crescentus
Procedure: The standard two-dimensional spectra ^1H-^15N HSQC of His-CleD with or without peptides were performed on a ^15N isotope labeled His-CleD. The His-CleD (400 µM) sample was in 20 mM sodium phosphate buffer at pH 7.0, 200 mM NaCl, 1 mM MgCl2, 5 mM 2-Mercaptoethanol, 0.02% NaN3 (w/v), and 5% (v/v) D2O with a sample volume of 270 μL. c-di-GMP was titrated to the protein sample in 2.5-fold excess. The FliM peptide from residue Ala47 to Gly62 contains an additional Trp at the N-terminus to measure concentration and to increase solubility (WASERILNQDEIDSLLG). As the corresponding ID57_WA peptide contains a Trp we used the following sequence ASERILNQDEWASLLG. Both peptides were purchased from JPT Peptide Technologies, and dissolved in 200 mM NaCl, 20 mM sodium phosphate buffer at pH 7.0, 1 mM MgCl2, 5 mM β-Mercaptoethanol, 0.02%NaN3 (w/v), and 5% (v/v) D2O. With homonuclear 2D-TOCSY and 2D-NOESY experiments the peptide proton resonances were assigned. It was confirmed, that both peptides were stable in this buffer and unfolded (data not shown). The spectrum of the purified CleD protein was recorded in the same buffer as the FliM peptides.

2'-O-(6-[Fluoresceinyl]aminohexylcarbamoyl)-cyclic diguanosine monophosphate [flr-cdG]
Kd (His-CleD (aa 19–269); 60 nM ligand): 1200 nM
Kd relative to affinities determined for c-di-GMP itself (His-CleD (aa 19–269); full-length CleD and variant lacking part of the CTR): roughly 10 fold
Kd (His-CleD (aa 19–262)): 1300 nM
dissociation constant relative to full-length protein (His-CleD-rec (aa 19–141)): 40 fold
Kd (His-CleD-rec (aa 19–141); 60 nM ligand): 41700 nM
dissociation constant relative to full-length protein [1]: 5 fold
Kd ([1]; 60 nM ligand): 6200 nM
binding (in words) (His-SUMO R156A ARRCleD): strongly reduced binding; also recorded: completely abolished
reduction of binding relative to wild-type ARR (His-SUMO R169A ARRCleD): about 5 fold
binding (in words) [2]: failed to bind
Kd [3]: 471000 nM
binding (in words) (His-CheY): failed to bind
Kd [4]: 14800 nM
binding (in words) (His-SUMO): not SUMO itself were able to bind flr-cdG

Nc1nc2c(ncn2[C@@H]2O[C@H](COP(=O)(O)OP(=O)(O)OP(=O)(O)O)[C@@H](O)[C@H]2O)c(=O)[nH]1 [GTP]
concentration required for a similar reduction of 33P-labelled c-di-GMP binding, relative to non-labeled c-di-GMP (StrepII-CleD [5]): 1000 fold

Nc1nc2c(ncn2[C@@H]2O[C@@H]3COP(=O)(O)O[C@H]4[C@@H](O)[C@H](n5cnc6c(=O)[nH]c(N)nc65)O[C@@H]4COP(=O)(O)O[C@H]3[C@H]2O)c(=O)[nH]1 [c-di-GMP, Cyclic di-GMP]
Kd (StrepII-CleD [6]): 212 nM
binding (in words) (StrepII-CleD [6]; purified Strep-tagged CleD, radiolabeled c-di-GMP): high affinity binding in the nanomolar range
Kd (CleD-GFP [7]): 86 nM
Kd (His-CleD_R113A-GFP): 221 nM
increase of the Kd as compared to wild-type CleD (His-CleD_R113A-GFP; ITC): 3 fold
binding (in words) [8]: completely abolished
binding stoichiometry (CleD-GFP [9]): two molecules of c-di-GMP are bound to one CleD protomer; also recorded: one c-di-GMP dimer to one protein monomer
competition with labeled probe for binding (in words) (StrepII-CleD [5]): effectively compete; also recorded: equimolar amounts of non-labeled c-di-GMP reduced binding

Nc1nc2c(ncn2[C@@H]2O[C@H](COP(=O)(O)O[C@H]3[C@@H](O)[C@H](n4cnc5c(=O)[nH]c(N)nc54)O[C@@H]3COP(=O)(O)O)[C@@H](O)[C@H]2O)c(=O)[nH]1 [pGpG]
concentration required for a similar reduction of 33P-labelled c-di-GMP binding, relative to non-labeled c-di-GMP (StrepII-CleD [5]): 1000 fold

ASERILNQDEWASLLG [FliM_ID57WA mutant peptide, FliM residues 47–62 peptide with ID57WA substitution]
HSQC spectrum change (in words) (CleD; with c-di-GMP): indistinguishable from the spectrum recorded for CleD alone

WASERILNQDEIDSLLG [FliM wild-type peptide, FliM peptide from residue Ala47 to Gly62 with an additional Trp at the N-terminus]
number of CleD resonances with shift changes (CleD; in the presence of c-di-GMP, peptide in two-fold excess): approximately 10 resonances
HSQC spectrum change (in words) (CleD; without c-di-GMP): indistinguishable from the spectrum recorded for CleD alone
